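All cell lines were grown in 96-well plates and treated with compound for 48 hours. At the GI50, growth is halved.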 Activity calls are given as the source filed them. Cut-off read from the data, not from the text of the source: active = GI50 up to about 1.1 µM and inactive = higher. *1 amine or outer side, *2 acyl side, *3 side chain or, on linkers, in order; H or OH if unused. Where a SMILES comes first, the peptide text is derived from it. [ ]: non-standard residue; d: D form. The star is where a group is joined. ξ: configuration not given here. X43 = CCC(=O)CC(O)CC(C)CC(N[*:1])C(=O)[*:2]; ξLeu(3ξ-OH) = CC(C)C(O)C(N)C(=O)O; ξPro(4ξ-Me) = CC1CNC(C(=O)O)C1; X42 = CCC(C)/C=C/C(=O)*; Aib = CC(C)(N)C(=O)O; X44 = CC(CN(C)C)N*; βAla = NCCC(=O)O
Experiments:
Assay in all cases: NCI tumour cell line growth inhibition, 48 h
T47D = tested on: T47D
SW-620 = tested on: SW-620
SK-OV-3 = tested on: SK-OV-3
OVCAR-8 = tested on: OVCAR-8
MDA-N = tested on: MDA-N
KM12 = tested on: KM12
ACHN = tested on: ACHN
UACC-257 = tested on: UACC-257
UACC-62 = tested on: UACC-62
OVCAR-5 = tested on: OVCAR-5
DU-145 = tested on: DU-145
HOP-92 = tested on: HOP-92
NCI/ADR-RES = tested on: NCI/ADR-RES
COLO 205 = tested on: COLO 205
TK-10 = tested on: TK-10
SF-539 = tested on: SF-539
CCRF-CEM = tested on: CCRF-CEM
HCT-116 = tested on: HCT-116
SK-MEL-28 = tested on: SK-MEL-28
SNB-19 = tested on: SNB-19

Structure (SMILES)	GI50 (T47D)	GI50 (SW-620)	GI50 (SK-OV-3)	GI50 (OVCAR-8)	GI50 (MDA-N)	GI50 (KM12)	GI50 (ACHN)	GI50 (UACC-257)	GI50 (UACC-62)	GI50 (OVCAR-5)	GI50 (DU-145)	GI50 (HOP-92)	GI50 (NCI/ADR-RES)	GI50 (COLO 205)	GI50 (TK-10)	GI50 (SF-539)	GI50 (CCRF-CEM)	GI50 (HCT-116)	GI50 (SK-MEL-28)	GI50 (SNB-19)
Cc1nc(Nc2ccc(Cl)cc2Cl)sc1C(=O)Nc1ccccc1	22.4 µM (inactive)	> 100 µM (inactive)	> 100 µM (inactive)	> 100 µM (inactive)	81.3 µM (inactive)	35.8 µM (inactive)	36.1 µM (inactive)	61.4 µM (inactive)	82.6 µM (inactive)	> 100 µM (inactive)	> 100 µM (inactive)	31.3 µM (inactive)	96.6 µM (inactive)	26.2 µM (inactive)	57.4 µM (inactive)	> 100 µM (inactive)	34.1 µM (inactive)	35.1 µM (inactive)	> 100 µM (inactive)	> 100 µM (inactive)
O=S(=O)(O)C(CO)c1ccccc1.O=S(=O)(O)Cc1ccccc1 (stereo not given)	> 100 µM (inactive)	> 100 µM (inactive)	> 100 µM (inactive)	> 100 µM (inactive)	> 100 µM (inactive)	> 100 µM (inactive)	> 100 µM (inactive)	> 100 µM (inactive)	> 100 µM (inactive)	> 100 µM (inactive)	> 100 µM (inactive)	> 100 µM (inactive)	> 100 µM (inactive)	> 100 µM (inactive)	> 100 µM (inactive)	> 100 µM (inactive)	19.6 µM (inactive)	> 100 µM (inactive)	> 100 µM (inactive)	> 100 µM (inactive)
CCC(=O)CC(O)CC(C)CC(NC(=O)C1CC(C)CN1C(=O)/C=C/C(C)CC)C(=O)NC(C(=O)NC(C)(C)C(=O)NC(CC(C)C)C(=O)NC(CC(C)C)C(=O)NC(C)(C)C(=O)NC(C)(C)C(=O)NCCC(=O)NC(C)CN(C)C)C(O)C(C)C (stereo not given) (X42-[ξPro(4ξ-Me)][X43][ξLeu(3ξ-OH)][Aib]LL[Aib][Aib][βAla]-X44; configuration not given here)	< 0.005 µM (active)	0.143 µM (active)	0.341 µM (active)	< 0.005 µM (active)	0.0818 µM (active)	0.0412 µM (active)	0.611 µM (active)	< 0.005 µM (active)	0.268 µM (active)	0.313 µM (active)	0.351 µM (active)	0.0887 µM (active)	7.08 µM (inactive)	0.0131 µM (active)	0.345 µM (active)	0.292 µM (active)	< 0.005 µM (active)	0.0235 µM (active)	0.362 µM (active)	0.0115 µM (active)
O=C1/C(=C/c2ccccc2)CCc2ccc([N+](=O)[O-])cc21	> 51.6 µM (inactive)	> 70 µM (inactive)	41 µM (inactive)	82.6 µM (inactive)	35 µM (inactive)	42.3 µM (inactive)	40.4 µM (inactive)	39.5 µM (inactive)	31 µM (inactive)	> 100 µM (inactive)	> 72.3 µM (inactive)	81.5 µM (inactive)	43.6 µM (inactive)	> 100 µM (inactive)	60.1 µM (inactive)	64.3 µM (inactive)	4.13 µM (inactive)	24.4 µM (inactive)	> 81.8 µM (inactive)	27.2 µM (inactive)
